Source: ChEMBL document CHEMBL1201862, “PubChem BioAssay data set” (2004)
Activity calls are given as the source filed them.

Columns and labels:
BJ [1] = assay: cells; type: functional, cell-based; conditions: Homo sapiens
BJ [2] = assay: cytotoxicity toward BJ-TERT fibroblasts, dose response, cell-based, RAS-independent, luminescence (AID 1933); type: functional; conditions: Homo sapiens
HEK293 = assay: inhibitors of LMP1-driven NF-kB reporter, dose response, cell-based, HEK293, luciferase, cherry-pick (AID 588343); type: functional; conditions: Homo sapiens
BJ [3] = assay: cytotoxicity toward BJ-TERT-LT-ST fibroblasts, dose response, cell-based, RAS-independent, luminescence (AID 1935); type: functional; conditions: Homo sapiens;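 further: BJ fibroblasts immortalized with TERT plus LT and ST oncogenes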
[4] = biological target: Luciferin 4-monooxygenase (Photinus pyralis, UniProt P08659); assay: firefly luciferase enzyme inhibitors, dose response, biochemical, luminescence (AID 1891)
Sequence of Luciferin 4-monooxygenase (P08659 whole entry): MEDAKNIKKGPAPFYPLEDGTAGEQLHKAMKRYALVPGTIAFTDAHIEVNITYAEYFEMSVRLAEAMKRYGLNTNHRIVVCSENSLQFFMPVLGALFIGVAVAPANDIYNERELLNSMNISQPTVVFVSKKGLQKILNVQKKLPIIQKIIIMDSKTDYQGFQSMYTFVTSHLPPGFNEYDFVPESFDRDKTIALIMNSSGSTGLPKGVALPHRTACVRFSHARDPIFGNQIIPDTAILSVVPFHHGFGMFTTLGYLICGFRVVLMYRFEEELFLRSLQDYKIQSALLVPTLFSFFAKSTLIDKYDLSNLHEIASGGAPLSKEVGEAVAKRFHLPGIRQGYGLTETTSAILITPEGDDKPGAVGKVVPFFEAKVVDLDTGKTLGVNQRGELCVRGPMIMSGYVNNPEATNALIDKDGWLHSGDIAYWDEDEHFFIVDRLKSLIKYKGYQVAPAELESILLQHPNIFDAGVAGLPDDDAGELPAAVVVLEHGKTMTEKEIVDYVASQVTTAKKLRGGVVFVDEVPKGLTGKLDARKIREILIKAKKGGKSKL

[5] = cytotoxicity toward DRD oncogenic fibroblasts, dose response, cell-based, non-viral oncogenic, luminescence (AID 1934); type: functional; conditions: Homo sapiens
[6] = Luminescence Cell-Based Dose Confirmation HTS to Identify Inhibitors of Platelet Dense Granule Release. [Related pubchem assays: 1663 (Primary HTS), 1678 (Summary of Project)]; type: functional
Cytochrome P450 3A4 = Cytochrome P450 3A4 (Homo sapiens, UniProt P08684);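 further: CYP3A4 tested as one member of a cytochrome P450 panel screen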
Sequence of Cytochrome P450 3A4 (P08684 whole entry): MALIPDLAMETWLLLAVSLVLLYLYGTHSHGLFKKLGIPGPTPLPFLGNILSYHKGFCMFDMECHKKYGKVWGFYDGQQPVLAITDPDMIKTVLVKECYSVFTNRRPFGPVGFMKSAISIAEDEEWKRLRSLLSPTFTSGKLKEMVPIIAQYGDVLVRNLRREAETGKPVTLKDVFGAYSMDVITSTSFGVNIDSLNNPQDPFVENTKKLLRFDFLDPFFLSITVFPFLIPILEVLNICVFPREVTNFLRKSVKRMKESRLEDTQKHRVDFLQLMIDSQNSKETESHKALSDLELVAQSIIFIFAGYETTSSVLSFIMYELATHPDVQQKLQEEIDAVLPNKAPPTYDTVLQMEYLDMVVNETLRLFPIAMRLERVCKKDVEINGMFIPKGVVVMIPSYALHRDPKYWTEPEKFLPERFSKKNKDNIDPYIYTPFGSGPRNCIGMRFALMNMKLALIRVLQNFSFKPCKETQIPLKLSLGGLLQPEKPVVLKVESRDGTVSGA

Cytochrome P450 1A2 = biological target: T1, Cytochrome P450 1A2 (Homo sapiens, UniProt P05177);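 further: PubChem cytochrome P450 panel assay, CYP1A2 panel member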
T1 sequence (P05177 whole entry): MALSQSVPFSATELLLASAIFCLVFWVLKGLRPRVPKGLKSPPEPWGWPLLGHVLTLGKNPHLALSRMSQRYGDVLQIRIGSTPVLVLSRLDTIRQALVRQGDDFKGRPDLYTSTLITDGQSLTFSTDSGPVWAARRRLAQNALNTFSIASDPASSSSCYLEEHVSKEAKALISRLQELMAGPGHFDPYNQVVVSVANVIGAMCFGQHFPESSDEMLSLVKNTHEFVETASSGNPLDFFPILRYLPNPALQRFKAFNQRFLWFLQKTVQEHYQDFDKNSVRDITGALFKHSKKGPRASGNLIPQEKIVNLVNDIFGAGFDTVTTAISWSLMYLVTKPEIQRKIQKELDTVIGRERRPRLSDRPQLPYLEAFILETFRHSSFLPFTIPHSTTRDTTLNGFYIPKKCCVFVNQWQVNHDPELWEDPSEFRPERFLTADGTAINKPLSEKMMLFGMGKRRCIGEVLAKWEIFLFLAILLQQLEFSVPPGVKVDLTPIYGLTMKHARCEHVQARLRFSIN

Cytochrome P450 2C19 = Cytochrome P450 2C19 (Homo sapiens, UniProt P33261); assay: Cytochrome panel assay with activity outcomes. Panel member name: p450-cyp2c19 Compounds with AC50 equal or less than 10 uM are considered active; type: functional
Sequence of Cytochrome P450 2C19 (P33261 whole entry): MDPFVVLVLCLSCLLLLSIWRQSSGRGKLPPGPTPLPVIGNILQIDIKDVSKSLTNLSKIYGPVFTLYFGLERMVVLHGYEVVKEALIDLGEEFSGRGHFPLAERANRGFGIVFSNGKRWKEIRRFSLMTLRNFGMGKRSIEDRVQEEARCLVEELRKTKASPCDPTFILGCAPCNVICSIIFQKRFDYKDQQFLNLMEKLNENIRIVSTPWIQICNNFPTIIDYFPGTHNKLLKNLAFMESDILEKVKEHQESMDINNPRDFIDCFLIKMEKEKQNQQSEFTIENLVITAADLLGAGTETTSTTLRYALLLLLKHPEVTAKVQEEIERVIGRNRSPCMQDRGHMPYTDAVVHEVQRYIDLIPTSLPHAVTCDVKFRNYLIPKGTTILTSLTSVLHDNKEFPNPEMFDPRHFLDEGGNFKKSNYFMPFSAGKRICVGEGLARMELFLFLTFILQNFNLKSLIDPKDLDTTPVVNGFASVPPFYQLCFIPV

Cytochrome P450 2C9 = Cytochrome P450 2C9 (Homo sapiens, UniProt P11712)
Sequence of Cytochrome P450 2C9 (P11712 whole entry): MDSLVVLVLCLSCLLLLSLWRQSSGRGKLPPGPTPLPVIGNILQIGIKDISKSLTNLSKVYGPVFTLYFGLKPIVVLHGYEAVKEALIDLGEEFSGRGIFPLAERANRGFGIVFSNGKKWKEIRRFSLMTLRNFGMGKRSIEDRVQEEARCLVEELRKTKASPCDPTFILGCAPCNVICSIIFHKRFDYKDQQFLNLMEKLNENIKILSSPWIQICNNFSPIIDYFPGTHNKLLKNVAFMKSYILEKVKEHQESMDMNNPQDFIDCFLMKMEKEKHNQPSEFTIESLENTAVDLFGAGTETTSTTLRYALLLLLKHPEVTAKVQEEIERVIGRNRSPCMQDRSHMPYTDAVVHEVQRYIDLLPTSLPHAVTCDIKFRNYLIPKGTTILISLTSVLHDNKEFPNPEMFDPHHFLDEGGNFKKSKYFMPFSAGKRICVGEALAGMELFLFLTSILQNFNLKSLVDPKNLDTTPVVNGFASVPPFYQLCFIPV

H9c2 = assay: cells; type: functional, cell-based; conditions: Rattus norvegicus, H9c2, Myocardium;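 further: confirmatory concentration-response retest of ultra-high-throughput screening hits for modulation of myocardial damage; cell death induced by hydrogen peroxide oxidative stress; compound pretreatment for 60 min then peroxide exposure for 2 h; potency is for protecting the cells against peroxide damage rather than for killing them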

In the case of O=C(Nc1ccc(N2CCOCC2)cc1)c1cn2ccccc2n1, the EC50 (BJ [1]) was 11.1 µM (active), the EC50 (BJ [2]) was 12.3 µM (active) and the AC50 (HEK293) was 3.09 µM (active). The EC50 (BJ [3]) was > 150 µM (inconclusive), the EC50 [4] was 4.45 µM (active) and the EC50 [5] was 12.1 µM (active). The EC50 [6] was 3.25 µM (active).

In the case of CCc1ccccc1NC(=O)c1nnn(CC(=O)Nc2cccc(C)c2C)c1N, the AC50 (Cytochrome P450 3A4) was 7.08 µM (inconclusive), the AC50 (Cytochrome P450 1A2) was 12.6 µM (inconclusive) and the AC50 (Cytochrome P450 2C19; read-out: AC50) was 2 µM (inconclusive). The AC50 (Cytochrome P450 2C9) was “inconclusive”.

In the case of O=C(Nc1ncc(Cc2cccc(Cl)c2)s1)C1=NCCN1, the AC50 (Cytochrome P450 1A2) was 31.6 µM (inconclusive), the AC50 (Cytochrome P450 2C19) was “inconclusive” and the AC50 (Cytochrome P450 2C9) was “inconclusive”.

For COc1ccc(CSc2nc(O)c3ccccc3n2)cc1F, the IC50 (H9c2) was > 79 µM (inactive).

For COc1ccc(N(C(=O)c2cccc([N+](=O)[O-])c2)S(=O)(=O)c2cccs2)cc1, the IC50 (H9c2) was > 79 µM (inactive).

For N#Cc1c(Oc2ccc3ccccc3c2)sc(C(=O)c2ccccc2)c1N, the AC50 (HEK293) was 26.7 µM (active).

With O=C1C2C3C=CC(CC3)C2C(=O)N1c1cccc(Br)c1 (stereo not drawn) the IC50 (H9c2) was > 79 µM (inactive).
